Read-outs that look alike come from different tables or passages of the source.
Tests used:
[1] = Procedure: After administration of the aforementioned ^90Y into the mouse tail vein the systemic distribution was studied by the following experiments. The animals used were those obtained from the source as used for the BALB/c (body weight 25 g) described in Examples 1 and 2 above. After administration of an aqueous 0.5 μCi (18.5 kBq) ^90YCl citrate solution per male mouse in the tail vein, analysis was conducted over time at 5 time points: at 10 minutes, 1, 6, 24, and 48 hours. The animals were sacrificed under an ether anesthesia, and the whole body autoradiographs were prepared using with the same procedure as that used in Example 1 and Example 2 (FIGS. 7, 8, 9, 10, 11).
tumor (T) = assay: Effect of ^90Y radiation on mitosis, [2-^14C] thymidine incorporation as marker of DNA replication (macroautoradiography): tumor; format: in vivo, BALB/c mice; further: key: −: no effect; ±: Slight inhibition; +: Decrease in function; ++: Definite decrease in function; +++: No incorporation of ^14C marker in DNA replication
[2] = system: digestive tract mucosa (m)
Procedure: (§1) ^90YCl at the three levels, 0.5 μCi (18.5 kBq), 2 μCi (74 kBq) or 10 μCi (370 kBq), was injected intravenously into the tail of male BALB/c mice in groups of 6 mice per group (a total of 18 mice). […] The animals were sacrificed one hour later under ether anesthesia, and the macroautoradiographs were prepared as described in Example 1. […] FIG. 12 is a microautoradiograph of the bone marrow, showing the bone marrow from a mouse sacrificed 1 hour after [2-^14C] was administered, which was 48 hours after the ^90Y administration.
(§2) On the sections were placed five sheets of 10 μm thick aluminum foil, and this was brought into contact with IP to generate only the ^90Y image. […] If the image of the two radiation nuclides is to be obtained simultaneously, one can place an industrial X-ray film in contact with said section, followed by five sheets of aluminum foil, and then the IP; these are then stored in a dark box. After about 7 days, the X-ray film is taken out and photographically processed by the usual method to produce the image, while the IP is processed by Fuji BAS2000 for computer processing of the images. This method provides ^14C image on the industrial X-ray film. This method also gives a ^90Y image on the IP.

bone marrow (B) = conditions: for effect of ^90Y radiation on [2-^14C] thymidine incorporation (suppression of mitosis), B: bone marrow
Procedure: as §1, §2

[3] = system: excised jejunum, basal layer of the intestinal tract mucosa; assay: [2-^14C] thymidine incorporation in excised, cultured jejunum (in vitro system); format: cell-based, Wistar rat; conditions: 5 μCi injected into excised jejunum, cultured 10 minutes at 37° C.
Procedure: Next, the jejunum of a healthy Wistar male rat at seven weeks of age was used. The part of the abdomen was opened under ethyl ether anesthesia, and the jejunum of about 2-4 cm in length was excised. […] Then, the specimen was immediately frozen in liquid nitrogen and sectioned using a microtome to obtain frozen sections. Semi-microautoradiographs were prepared from these sections.

[4] = BALB/c, mouse, in vivo
Procedure: The back of BALB/c nude mice was inoculated with a 10^7 Hu09 cells (human osteosarcoma) grown in culture. 3 weeks later, animals with granulation tissue with a collagen layer were submitted for the experiment. […] 50 μm thick whole body sections cut longitudinally were prepared using a Leica Macrocut. The sections were stored in a sealed container and lyophilized. The dried sections in contact with a Fuji imaging plate were exposed in a dark box, and the IP was then processed with the Fuji BAS2000 analyzer to generate a digital image (FIG. 1).
The specimen was then placed in contact with IP, and 16 hours later the data was converted into a computer image for analysis.

[5] = system: jejunum, basal layer of the intestinal mucosa; assay: [2-^14C] thymidine injected into exposed jejunum, semi-microautoradiograph; format: in vivo, Wistar rat; conditions: 5 μCi injected into exposed jejunum, 5 minutes
Procedure: The specimen used was the jejunum from a healthy 7-week old Wistar rat, male. Under ethyl ether anesthesia, the abdomen was opened to expose the jejunum, which was marked with methylene blue. […] Frozen sections were prepared with a microtome, and a semi-microautoradiographs were obtained.

[6] = Fate of intravenously administered [2-^14C] thymidine in rats; format: in vivo; conditions: intravenous
Procedure: Extensive studies by the present inventors led to the discovery that when “thymidine” is intravenously administered to rats, the thymidine administered is utilized only in the S phase of the cell cycle, and more precisely, within 3 minutes after the administration of the thymidine. This observation is based on the findings obtained using a “thymidine” with the “2” carbon position within its structure labeled with ^14C and tracking the fate of the administered thymidine. It was discovered that thymidine not incorporated during the cell division is rapidly metabolized in the liver, leucocytes, and the like and mostly excreted out of the body as carbon dioxide gas. Based on these findings, the present inventors discovered that a thymidine with “2” carbon position labeled with ^14C is an extremely important marker for specifying the frequency of dividing cells in vivo and for localizing its site(s) within the body. It was also discovered that a (1,3-N) thymidine, obtained by attaching a fluorescent compound to the nitrogen atoms at 1,3-positions of the thymidine, can also be used as the labeled thymidine.

[7] = 0.5 μCi ^90Y i.v., 1 hr after ^90Y
[8] = 0.5 μCi ^90Y i.v., 6 hr after ^90Y
[9] = 0.5 μCi ^90Y i.v., 24 hr after ^90Y
[10] = 0.5 μCi ^90Y i.v., 48 hr after ^90Y
[11] = 0.5 μCi ^90Y i.v., 72 hr after ^90Y
[12] = 0.5 μCi ^90Y i.v., 168 hr after ^90Y
[13] = 2 μCi ^90Y i.v., 1 hr after ^90Y
[14] = 2 μCi ^90Y i.v., 6 hr after ^90Y
[15] = 2 μCi ^90Y i.v., 24 hr after ^90Y
[16] = 2 μCi ^90Y i.v., 48 hr after ^90Y
[17] = 2 μCi ^90Y i.v., 72 hr after ^90Y
[18] = 2 μCi ^90Y i.v., 168 hr after ^90Y
[19] = 10 μCi ^90Y i.v., 1 hr after ^90Y
[20] = 10 μCi ^90Y i.v., 6 hr after ^90Y
[21] = 10 μCi ^90Y i.v., 24 hr after ^90Y
[22] = 10 μCi ^90Y i.v., 48 hr after ^90Y
[23] = 10 μCi ^90Y i.v., 72 hr after ^90Y
[24] = 10 μCi ^90Y i.v., 168 hr after ^90Y

SMILES: [Cl][90Y]([Cl])[Cl] [^90Y, ^90YCl3]
- accumulation in the skeletal bones, share of the total dose ([1]; 0.5 μCi ^90YCl citrate solution, tail vein, IP images at 10 minutes to 48 hours): ≥ 70%
- ^90Y remaining in the liver, spleen, and kidney ([1]; 0.5 μCi, tail vein, 24 hours after administration): only a slight residue
- localization in skin, digestive tract epithelium, and vascular endothelial cells ([1]; 0.5 μCi, tail vein, image analysis): did not localize
- ^90Y image at the site of the osteosarcoma HU09 ([1]; whole body autoradiograph, compared with bones): blackened image completely equivalent to the extent seen in the bones
- effect of ^90Y radiation on [2-^14C] thymidine incorporation (suppression of mitosis), T (tumor (T); [7]): −
- effect of ^90Y radiation on [2-^14C] thymidine incorporation (suppression of mitosis), T (tumor (T); [8]): −
- effect of ^90Y radiation on [2-^14C] thymidine incorporation (suppression of mitosis), T (tumor (T); [9]): −
- effect of ^90Y radiation on [2-^14C] thymidine incorporation (suppression of mitosis), T (tumor (T); [10]): +
- effect of ^90Y radiation on [2-^14C] thymidine incorporation (suppression of mitosis), T (tumor (T); [11]): +
- effect of ^90Y radiation on [2-^14C] thymidine incorporation (suppression of mitosis), T (tumor (T); [12]): ±
- effect of ^90Y radiation on [2-^14C] thymidine incorporation (suppression of mitosis), T (tumor (T); [13]): −
- effect of ^90Y radiation on [2-^14C] thymidine incorporation (suppression of mitosis), T (tumor (T); [14]): +
- effect of ^90Y radiation on [2-^14C] thymidine incorporation (suppression of mitosis), T (tumor (T); [15]): ++
- effect of ^90Y radiation on [2-^14C] thymidine incorporation (suppression of mitosis), T (tumor (T); [16]): ++
- effect of ^90Y radiation on [2-^14C] thymidine incorporation (suppression of mitosis), T (tumor (T); [17]): ++
- effect of ^90Y radiation on [2-^14C] thymidine incorporation (suppression of mitosis), T (tumor (T); [18]): +
- effect of ^90Y radiation on [2-^14C] thymidine incorporation (suppression of mitosis), T (tumor (T); [19]): ±
- effect of ^90Y radiation on [2-^14C] thymidine incorporation (suppression of mitosis), T (tumor (T); [20]): ++
- effect of ^90Y radiation on [2-^14C] thymidine incorporation (suppression of mitosis), T (tumor (T); [21]): +++
- effect of ^90Y radiation on [2-^14C] thymidine incorporation (suppression of mitosis), T (tumor (T); [22]): +++
- effect of ^90Y radiation on [2-^14C] thymidine incorporation (suppression of mitosis), T (tumor (T); [23]): +++
- effect of ^90Y radiation on [2-^14C] thymidine incorporation (suppression of mitosis), T (tumor (T); [24]): +++
- effect of ^90Y radiation on [2-^14C] thymidine incorporation (suppression of mitosis), m [2, 7]: −
- effect of ^90Y radiation on [2-^14C] thymidine incorporation (suppression of mitosis), m [2, 8]: −
- effect of ^90Y radiation on [2-^14C] thymidine incorporation (suppression of mitosis), m [2, 9]: −
- effect of ^90Y radiation on [2-^14C] thymidine incorporation (suppression of mitosis), m [2, 10]: −
- effect of ^90Y radiation on [2-^14C] thymidine incorporation (suppression of mitosis), m [2, 11]: −
- effect of ^90Y radiation on [2-^14C] thymidine incorporation (suppression of mitosis), m [2, 12]: −
- effect of ^90Y radiation on [2-^14C] thymidine incorporation (suppression of mitosis), m [2, 13]: −
- effect of ^90Y radiation on [2-^14C] thymidine incorporation (suppression of mitosis), m [2, 14]: −
- effect of ^90Y radiation on [2-^14C] thymidine incorporation (suppression of mitosis), m [2, 15]: −
- effect of ^90Y radiation on [2-^14C] thymidine incorporation (suppression of mitosis), m [2, 16]: −
- effect of ^90Y radiation on [2-^14C] thymidine incorporation (suppression of mitosis), m [2, 17]: −
- effect of ^90Y radiation on [2-^14C] thymidine incorporation (suppression of mitosis), m [2, 18]: −
- effect of ^90Y radiation on [2-^14C] thymidine incorporation (suppression of mitosis), m [2, 19]: −
- effect of ^90Y radiation on [2-^14C] thymidine incorporation (suppression of mitosis), m [2, 20]: −
- effect of ^90Y radiation on [2-^14C] thymidine incorporation (suppression of mitosis), m [2, 21]: −
- effect of ^90Y radiation on [2-^14C] thymidine incorporation (suppression of mitosis), m [2, 22]: −
- effect of ^90Y radiation on [2-^14C] thymidine incorporation (suppression of mitosis), m [2, 23]: −
- effect of ^90Y radiation on [2-^14C] thymidine incorporation (suppression of mitosis), m [2, 24]: −
- effect of ^90Y radiation on [2-^14C] thymidine incorporation (suppression of mitosis), B (bone marrow (B); [7]): −
- effect of ^90Y radiation on [2-^14C] thymidine incorporation (suppression of mitosis), B (bone marrow (B); [8]): −
- effect of ^90Y radiation on [2-^14C] thymidine incorporation (suppression of mitosis), B (bone marrow (B); [9]): −
- effect of ^90Y radiation on [2-^14C] thymidine incorporation (suppression of mitosis), B (bone marrow (B); [10]): +
- effect of ^90Y radiation on [2-^14C] thymidine incorporation (suppression of mitosis), B (bone marrow (B); [11]): +
- effect of ^90Y radiation on [2-^14C] thymidine incorporation (suppression of mitosis), B (bone marrow (B); [12]): ±
- effect of ^90Y radiation on [2-^14C] thymidine incorporation (suppression of mitosis), B (bone marrow (B); [13]): −
- effect of ^90Y radiation on [2-^14C] thymidine incorporation (suppression of mitosis), B (bone marrow (B); [14]): +
- effect of ^90Y radiation on [2-^14C] thymidine incorporation (suppression of mitosis), B (bone marrow (B); [15]): ++
- effect of ^90Y radiation on [2-^14C] thymidine incorporation (suppression of mitosis), B (bone marrow (B); [16]): ++
- effect of ^90Y radiation on [2-^14C] thymidine incorporation (suppression of mitosis), B (bone marrow (B); [17]): ++
- effect of ^90Y radiation on [2-^14C] thymidine incorporation (suppression of mitosis), B (bone marrow (B); [18]): +
- effect of ^90Y radiation on [2-^14C] thymidine incorporation (suppression of mitosis), B (bone marrow (B); [19]): ±
- effect of ^90Y radiation on [2-^14C] thymidine incorporation (suppression of mitosis), B (bone marrow (B); [20]): ++
- effect of ^90Y radiation on [2-^14C] thymidine incorporation (suppression of mitosis), B (bone marrow (B); [21]): +++
- effect of ^90Y radiation on [2-^14C] thymidine incorporation (suppression of mitosis), B (bone marrow (B); [22]): +++
- effect of ^90Y radiation on [2-^14C] thymidine incorporation (suppression of mitosis), B (bone marrow (B); [23]): +++
- effect of ^90Y radiation on [2-^14C] thymidine incorporation (suppression of mitosis), B (bone marrow (B); [24]): +++
- level that showed cytotoxic effects near the sites of ^90Y deposition (bone marrow (B); bone / bone marrow): about 5 μCi/25 g
- activity of the lymphocytes in the bone marrow to degrade [2-^14C] thymidine (bone marrow (B); first group, 0.5 μCi administration): only a slight decrease

SMILES: Cc1cn([C@H]2C[C@H](O)[C@@H](CO)O2)c(=O)[nH]c1=O [[2-^14C] thymidine]
- incorporation in the basal layer of the intestinal tract mucosa (semi-microautoradiograph) [3]: substantially darkened images
- time to incorporation into DNA after injection [4]: less than 3 minutes
- time by which the ^14C component is completely excreted out of other areas, except the bone and bone marrow ([4]; iv): ≤ 1 h
- incorporation in the basal layer of the intestinal mucosa (semi-microautoradiograph) [5]: darkened images were clearly recorded
- time after administration within which thymidine is utilized (S phase) [6]: ≤ 3 min

— patent publication US20040028609A1, “Two-dimensionally quantified image method for distinguishing and quantifying over-growing tissue or the like” (priority 2000, published 2004)
